Converted amounts (≈) assume the structure as drawn. Read-outs that look alike come from different tables or passages of the source.
Columns and labels:
[1] = system: MEM-nonsusceptible Enterobacterales; test: MIC, broth microdilution; format: cell-based; conditions: MEM-nonsusceptible Enterobacterales (127), cefiderocol 126 isolates
[2] = system: MBL-producing isolates (Enterobacterales); test: MIC, broth microdilution; format: cell-based; conditions: for MIC90: read-out: MIC90
96 P. aeruginosa = test: MIC, broth microdilution; format: cell-based, Pseudomonas aeruginosa; conditions: Pseudomonas aeruginosa (96)
[3] = system: MEM-, imipenem/relebactam-, and ceftolozane/tazobactam-nonsusceptible P. aeruginosa; test: MIC, broth microdilution; format: cell-based, Pseudomonas aeruginosa; conditions: for CLSI MIC interpretation I (intermediate) / CLSI MIC interpretation R (resistant) / CLSI MIC interpretation S (susceptible): CLSI breakpoints, marked c: breakpoints for β-lactam alone; for MIC Range / MIC50 / MIC90: fixed concentration (μg/mL) in label; for MIC50 / MIC90: Pseudomonas aeruginosa; for MIC50: read-out: MIC50; for MIC90: read-out: MIC90
[4] = system: E. coli CDC-137 (NDM-6), PBP3 mutations; test: MIC, broth microdilution; format: cell-based; conditions: Escherichia coli, fixed BLI concentration (μg/mL) in parentheses in label
[5] = system: E. coli CDC-150 (NDM-5), PBP3 mutations; test: MIC, broth microdilution; format: cell-based; conditions: Escherichia coli, fixed BLI concentration (μg/mL) in parentheses in label
[6] = system: E. coli CDC-162 (NDM-7), PBP3 mutations; test: MIC, broth microdilution; format: cell-based; conditions: Escherichia coli
[7] = system: E. coli CDC-435 (NDM-1), PBP3 mutations; test: MIC, broth microdilution; format: cell-based; conditions: Escherichia coli, fixed BLI concentration (μg/mL) in parentheses in label
[8] = system: MEM-nonsusceptible Enterobacterales with serine-carbapenemases; test: MIC, broth microdilution; format: cell-based; conditions: MEM-nonsusceptible Enterobacterales with serine-carbapenemases (58)
[9] = system: MEM-nonsusceptible Enterobacterales with metallo-carbapenemases; test: MIC, broth microdilution; format: cell-based; conditions: MEM-nonsusceptible Enterobacterales with metallo-carbapenemases (55), cefiderocol 54 isolates
[10] = system: Staphylococcus epidermidis KUB4871/methicillin-sensitive; test: MIC, reference strains of aerobic bacteria; format: cell-based
[11] = system: Staphylococcus epidermidis KUB4862/methicillin-resistant; test: MIC, reference strains of aerobic bacteria; format: cell-based
[12] = system: Staphylococcus lugdunensis KUB4804; test: MIC, reference strains of aerobic bacteria; format: cell-based
[13] = system: Micrococcus luteus ATCC 9341; test: MIC, reference strains of aerobic bacteria; format: cell-based; conditions: ATCC9341
[14] = system: Enterococcus faecalis ATCC 29212; test: MIC, reference strains of aerobic bacteria; format: cell-based; conditions: ATCC29212
[15] = system: Enterococcus faecium NCTC 12204; test: MIC, reference strains of aerobic bacteria; format: cell-based; conditions: NCTC12204
[16] = system: Streptococcus pneumoniae ATCC 49619; test: MIC, reference strains of aerobic bacteria; format: cell-based; conditions: ATCC49619
[17] = system: Streptococcus mitis GTC495 (ATCC 49456); test: MIC, reference strains of aerobic bacteria; format: cell-based; conditions: ATCC49456
[18] = system: Streptococcus mutans GTC218; test: MIC, reference strains of aerobic bacteria; format: cell-based
[19] = system: Streptococcus porcinus ATCC 12391; test: MIC, reference strains of aerobic bacteria; format: cell-based; conditions: ATCC12391
[20] = system: Escherichia coli ATCC 25922; test: MIC, reference strains of aerobic bacteria; format: cell-based; conditions: ATCC25922
[21] = system: Klebsiella pneumoniae ATCC 700603; test: MIC, reference strains of aerobic bacteria; format: cell-based; conditions: ATCC700603
[22] = system: Klebsiella aerogenes NCTC 10006 (ATCC 13048); test: MIC, reference strains of aerobic bacteria; format: cell-based
[23] = system: Acinetobacter calcoaceticus NBRC12552 (ATCC 14987); test: MIC, reference strains of aerobic bacteria; format: cell-based
[24] = system: Stenotrophomonas maltophilia KUB3619; test: MIC, reference strains of aerobic bacteria; format: cell-based
[25] = system: Enterobacter hormaechei ATCC BAA-2082; test: MIC, reference strains of aerobic bacteria; format: cell-based; conditions: ATCCBAA2082
[26] = system: Enterobacter cloacae NBRC 13535 (ATCC 13047); test: MIC, reference strains of aerobic bacteria; format: cell-based
[27] = system: Proteus vulgaris ATCC 6380; test: MIC, reference strains of aerobic bacteria; format: cell-based; conditions: ATCC6380
[28] = cited from earlier work
[29] = CLSI breakpoints, marked c: breakpoints for β-lactam alone, tigecycline: FDA breakpoints
[30] = fixed concentration (μg/mL) in label, read-out: MIC50
[31] = fixed concentration (μg/mL) in label, read-out: MIC90
[32] = Enterobacterales with metallo-carbapenemases (74), cefiderocol 73 isolates, CLSI breakpoints, marked c: breakpoints for β-lactam alone, tigecycline: FDA breakpoints
[33] = CLSI breakpoints, marked c: breakpoints for β-lactam alone
[34] = fixed concentration (μg/mL) in label
[35] = Ceftolozane/tazobactam-nonsusceptible Pseudomonas aeruginosa (45)
[36] = Imipenem/relebactam-nonsusceptible Pseudomonas aeruginosa (43)
[37] = MEM-nonsusceptible Pseudomonas aeruginosa (76)

CC(C)(O/N=C(\C(=O)N[C@@H]1C(=O)N2C(C(=O)[O-])=C(C[N+]3(CCNC(=O)c4ccc(O)c(O)c4Cl)CCCC3)CS[C@H]12)c1csc(N)n1)C(=O)O [FDC, cefiderocol]
CLSI MIC interpretation I (intermediate) [1, 29]: 3.2%
CLSI MIC interpretation R (resistant) [1, 29]: 0.8%
CLSI MIC interpretation S (susceptible) [1, 29]: 96%
MIC50 [1, 30]: 1 µg/mL (≈ 1.33 µM)
MIC90 [1, 31]: 2 µg/mL (≈ 2.66 µM)
CLSI MIC interpretation I (intermediate) [2, 32]: 5.5%
CLSI MIC interpretation R (resistant) [2, 32]: 1.4%
CLSI MIC interpretation S (susceptible) [2, 32]: 93.2%
MIC50 ([2]; Enterobacterales with metallo-carbapenemases (74), cefiderocol 73 isolates, fixed concentration (μg/mL) in label, read-out: MIC50): 1 µg/mL (≈ 1.33 µM)
MIC90 ([2]; Enterobacterales with metallo-carbapenemases (74), cefiderocol 73 isolates, fixed concentration (μg/mL) in label): 4 µg/mL (≈ 5.32 µM)
MIC90 ([2]; MBL-producing isolates, comparators): ≤ 4 µg/mL
CLSI MIC interpretation I (intermediate) (96 P. aeruginosa; [33]): 0%
CLSI MIC interpretation R (resistant) (96 P. aeruginosa; [33]): 0%
CLSI MIC interpretation S (susceptible) (96 P. aeruginosa; [33]): 100%
MIC Range (96 P. aeruginosa; [34]): ≤0.06 to 4 µg/mL
MIC50 (96 P. aeruginosa; [30]): 0.5 µg/mL (≈ 0.665 µM)
MIC90 (96 P. aeruginosa; [31]): 2 µg/mL (≈ 2.66 µM)
CLSI MIC interpretation I (intermediate) [3, 35]: 0%
CLSI MIC interpretation R (resistant) [3, 35]: 0%
CLSI MIC interpretation S (susceptible) [3, 35]: 100%
MIC Range [3, 35]: 0.25 to 4 µg/mL
CLSI MIC interpretation I (intermediate) [3, 36]: 0%
CLSI MIC interpretation R (resistant) [3, 36]: 0%
CLSI MIC interpretation S (susceptible) [3, 36]: 100%
MIC Range [3, 36]: 0.12 to 4 µg/mL
CLSI MIC interpretation I (intermediate) [3, 37]: 0%
CLSI MIC interpretation R (resistant) [3, 37]: 0%
CLSI MIC interpretation S (susceptible) [3, 37]: 100%
MIC Range [3, 37]: ≤0.06 to 4 µg/mL
MIC50 [3, 35]: 0.5 µg/mL
MIC90 [3, 35]: 2 µg/mL
MIC50 [3, 36]: 0.5 µg/mL
MIC90 [3, 36]: 2 µg/mL
MIC50 [3, 37]: 0.5 µg/mL (≈ 0.665 µM)
MIC90 [3, 37]: 2 µg/mL (≈ 2.66 µM)
MIC [4]: 2 µg/mL (≈ 2.66 µM)
MIC [5]: 4 µg/mL (≈ 5.32 µM)
MIC [6]: 8 µg/mL (≈ 10.6 µM)
MIC [7]: 4 µg/mL (≈ 5.32 µM)
CLSI MIC interpretation I (intermediate) [8, 29]: 0%
CLSI MIC interpretation R (resistant) [8, 29]: 0%
CLSI MIC interpretation S (susceptible) [8, 29]: 100%
MIC Range [8, 34]: ≤0.06 to 4 µg/mL
MIC50 [8, 30]: 0.5 µg/mL (≈ 0.665 µM)
MIC90 [8, 31]: 2 µg/mL (≈ 2.66 µM)
CLSI MIC interpretation I (intermediate) [9, 29]: 7.4%
CLSI MIC interpretation R (resistant) [9, 29]: 1.9%
CLSI MIC interpretation S (susceptible) [9, 29]: 90.7%
MIC50 [9, 30]: 1 µg/mL (≈ 1.33 µM)
MIC90 [9, 31]: 4 µg/mL (≈ 5.32 µM)

N[C@@H](C(=O)N1CC(Oc2ccc3c(c2C(=O)O)OB(O)CC3)C1)c1c[nH]cn1 [KSP-1007, 7-({1-[(2R)-2-amino-2-(1H-imidazol-4-yl)acetyl]azetidin-3-yl}oxy)-2-hydroxy-3,4-dihydro-2H-1,2-benzoxaborinine-8-carboxylic acid]
MIC [10]: 4 µg/mL (≈ 10.4 µM)
MIC [11]: > 128 µg/mL
MIC [12]: 4 µg/mL (≈ 10.4 µM)
MIC [13]: 128 µg/mL (≈ 331 µM)
MIC [14]: 64 µg/mL (≈ 166 µM)
MIC [15]: > 128 µg/mL
MIC [16]: 2 µg/mL (≈ 5.18 µM)
MIC [17]: 4 µg/mL (≈ 10.4 µM)
MIC [18]: 8 µg/mL (≈ 20.7 µM)
MIC [19]: 2 µg/mL (≈ 5.18 µM)
MIC [20]: 128 µg/mL (≈ 331 µM)
MIC [21]: > 128 µg/mL
MIC [22]: > 128 µg/mL
MIC [23]: > 128 µg/mL
MIC [24]: > 128 µg/mL
MIC [25]: > 128 µg/mL
MIC [26]: > 128 µg/mL
MIC [27]: > 128 µg/mL
human plasma protein binding rate [28]: about 75%
